According to patent US4145442A, “Phenoxy-hydroxypropylamines, their preparation, and method and pharmaceutical preparations for treating cardiovascular diseases” (priority 1972, dated 1979):
Like-named read-outs stand apart in the source and are kept apart here.

Experiments:
Assay type in all cases: in vivo
[1] = molecular target: T1, β2-receptors of the smooth muscles (Felis catus, UniProt Q9TST5); assay: β-blockade of isoprenaline peripheral vasodilator response (peripheral vascular resistance) in reserpinized cat; conditions: iv, 50% blockade of isoprenaline (usually 0.1 μg/kg) response
T1 construct: from tissue; host or cells: vascular bed of the blood-perfused leg of the anesthetized cat, paw excluded (in vivo)
Procedure: (§1) Compounds prepared according to the examples were evaluated for intrinsic activity and blocking effect on heart rate and peripheral vasodilator response to isoprenaline in the cat. Alprenolol was used as a reference source.
(§2) Cats weighing between 1.8 and 2.8 kg were anesthetized with 39 mg/kg pentobarbital sodium, intraperitoneally. The cat had been pre-treated with reserpine, 5 mg/kg intramuscular, about 18 hours before the experiment. Bilateral vagotomy was performed before the start of the experiment.
(§3) The heart rate was recorded on an Offner cardiotachometer triggered by the EKG-complex. Mean arterial blood pressure was recorded from a carotid artery. The peripheral resistance was measured in one of the legs of the cat in the following way: The femoral artery was opened in the inguinal region and the leg was perfused by blood delivered through a sigma motor pump at constant rate. The flow resistance (the pressure) was recorded via pressure transducer connected to the catheter distally to the pump. The paw was excluded from the circulation by a tight ligature. Intravenously injected isoprenaline increased the heart rate and reduced the perfusion pressure. An isoprenaline dose giving 70-80% of the maximal chronotropic response was determined. This dose (usually 0.1 μg/kg) was then repeated with 20-minute intervals. Ten minutes before each isoprenaline injection, the tested substances were administered intravenously for two minutes, starting with a dose of 0.01 mg/kg and increasing each subsequent dose fourfold. The intrinsic effects of the test substances were determined. The dose producing 50% blockade of the isoprenaline responses was evaluated from the plotted log dose percent blockade diagrams.

β-receptors of the heart [2] = molecular target: T2, β-receptors of the heart (Felis catus, UniProt Q9TST6); assay: Intrinsic activity on heart rate in reserpinized cat; conditions: iv, anesthetized, vagotomized, i.v., read-out: Intrinsic activity % of maximal isoprenaline heart rate
T2 construct: from tissue; host or cells: heart of the anesthetized, reserpine-pretreated, vagotomized cat (in vivo)
Procedure: as §1, §2, §3

β-receptors of the heart [3] = molecular target: T2, β-receptors of the heart; assay: β-blockade of isoprenaline heart rate response in reserpinized cat; conditions: iv, read-out: β-blockade heart rate ED50
Procedure: as §1, §2, §3

[4] = reserpinized cat, i.v., 50% blockade of isoprenaline (usually 0.1 μg/kg) response

T1 sequence (Q9TST5 whole entry, the tested form may be a part): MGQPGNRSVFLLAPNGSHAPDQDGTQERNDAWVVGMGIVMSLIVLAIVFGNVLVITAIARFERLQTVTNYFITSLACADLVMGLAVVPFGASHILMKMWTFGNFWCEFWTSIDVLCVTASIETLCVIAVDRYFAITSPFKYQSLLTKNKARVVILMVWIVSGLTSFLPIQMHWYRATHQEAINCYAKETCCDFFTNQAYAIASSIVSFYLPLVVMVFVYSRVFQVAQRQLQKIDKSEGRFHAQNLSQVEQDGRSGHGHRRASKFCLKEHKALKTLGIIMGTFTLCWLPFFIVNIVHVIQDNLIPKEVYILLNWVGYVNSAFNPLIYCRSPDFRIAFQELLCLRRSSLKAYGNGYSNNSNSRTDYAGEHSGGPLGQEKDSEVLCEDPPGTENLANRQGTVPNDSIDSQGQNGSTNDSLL
T2 sequence (Q9TST6 whole entry): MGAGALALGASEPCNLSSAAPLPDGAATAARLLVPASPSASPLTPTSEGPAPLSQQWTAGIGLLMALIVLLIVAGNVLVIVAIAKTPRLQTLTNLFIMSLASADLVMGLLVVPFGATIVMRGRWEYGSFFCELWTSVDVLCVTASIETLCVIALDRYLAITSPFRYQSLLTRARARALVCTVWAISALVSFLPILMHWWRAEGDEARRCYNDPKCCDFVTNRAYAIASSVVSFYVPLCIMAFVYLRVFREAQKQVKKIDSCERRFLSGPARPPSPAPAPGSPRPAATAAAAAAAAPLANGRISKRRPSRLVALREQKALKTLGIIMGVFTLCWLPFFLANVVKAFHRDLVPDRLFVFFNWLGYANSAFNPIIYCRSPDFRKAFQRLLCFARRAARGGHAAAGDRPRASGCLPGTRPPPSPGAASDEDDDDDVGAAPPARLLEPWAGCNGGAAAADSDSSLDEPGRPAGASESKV

SMILES: COCCc1ccc(OCC(O)CNC(C)C)c(Br)c1 (stereo not drawn) [Example 1, 1-isopropylamino-3-[2'-bromo-4'-(β-methoxyethyl)-phenoxy]-propanol-2]
- ED50 [1]: 1 mg/kg
- Emax (β-receptors of the heart [2]): 0%
- ED50 (β-receptors of the heart [3]; [4]): 0.03 mg/kg

SMILES: COCCc1ccc(OCC(O)CNC(C)C)c(Cl)c1 (stereo not drawn) [Example 2, 1-isopropylamino-3-[2'-chloro-4'-(2-methoxyethyl)phenoxy]-propanol-2]
- ED50 [1]: 3 mg/kg
- Emax (β-receptors of the heart [2]): 0%
- ED50 (β-receptors of the heart [3]; [4]): 0.1 mg/kg

SMILES: COCCc1ccc(OCC(O)CNC(C)(C)C)c(Cl)c1 (stereo not drawn) [Example 3]
- ED50 [1]: 1 mg/kg
- Emax (β-receptors of the heart [2]): 0%
- ED50 (β-receptors of the heart [3]; [4]): 0.03 mg/kg

SMILES: COCCc1ccc(OCC(O)CNC(C)C)c(COC)c1 (stereo not drawn) [Example 4, 1-isopropylamino-3-[2'-methoxymethyl-4'-(2-methoxyethyl)phenoxy]-propanol-2]
- ED50 [1]: 5 mg/kg
- Emax (β-receptors of the heart [2]): 5%
- ED50 (β-receptors of the heart [3]; [4]): 0.2 mg/kg

SMILES: COCCCc1ccc(OCC(O)CNC(C)C)c(Cl)c1 (stereo not drawn) [Example 5, 1-isopropylamino-3-[2'-chloro-4'-(3-methoxy-n-propyl)phenoxy]-propanol-2]
- ED50 [1]: 2 mg/kg
- Emax (β-receptors of the heart [2]): 0%
- ED50 (β-receptors of the heart [3]; [4]): 0.3 mg/kg

SMILES: COCCCc1ccc(OCC(O)CNC(C)C)c(Br)c1 (stereo not drawn) [Example 6, 1-isopropylamino-3-[2'-bromo-4'-(3-methoxypropyl)phenoxy]-propanol-2]
- ED50 [1]: 1.5 mg/kg
- Emax (β-receptors of the heart [2]): 0%
- ED50 (β-receptors of the heart [3]; cat): 0.4 mg/kg

SMILES: COCc1ccc(OCC(O)CNC(C)C)c(OC)c1 (stereo not drawn) [Example 7, 1-isopropyalmino-3-[2'-methoxymethylphenoxy]-propanol-2]
- ED50 [1]: 3 mg/kg
- Emax (β-receptors of the heart [2]): 1%
- ED50 (β-receptors of the heart [3]; [4]): 0.6 mg/kg

SMILES: C=CCc1cc(CCOC)ccc1OCC(O)CNC(C)C (stereo not drawn) [Example 8, 1-isopropylamino-3-[2'-allyl-4'-(2-methoxyethyl)-phenoxyl]propanol-2]
- ED50 [1]: 0.8 mg/kg
- Emax (β-receptors of the heart [2]): 0%
- ED50 (β-receptors of the heart [3]; [4]): 0.1 mg/kg

SMILES: CCCc1cc(CCOC)ccc1OCC(O)CNC(C)C (stereo not drawn) [Example 9, 1-isopropylamino-3-[2'-propyl-4'-(2-methoxyethyl)phenoxy]-propanol-2]
- ED50 [1]: 0.5 mg/kg
- Emax (β-receptors of the heart [2]): 0%
- ED50 (β-receptors of the heart [3]; [4]): 0.1 mg/kg

SMILES: C=CCc1cc(CCCOC)ccc1OCC(O)CNC(C)C (stereo not drawn) [Example 10, 1-isopropylamino-3-[2'-allyl-4'-(3-methoxy-n-propyl)phenoxy]-propanol-2]
- ED50 [1]: 1 mg/kg
- Emax (β-receptors of the heart [2]): 0%
- ED50 (β-receptors of the heart [3]; [4]): 0.3 mg/kg

SMILES: CSCCc1ccc(OCC(O)CNC(C)C)c(F)c1 (stereo not drawn) [Example 11, 1-isopropylamino-3-[2'-fluoro-4'-(2-methylmercaptoethyl)phenoxy]-propanol-2xHCl]
- ED50 [1]: 1 mg/kg
- Emax (β-receptors of the heart [2]): 0%
- ED50 (β-receptors of the heart [3]; [4]): 0.2 mg/kg

SMILES: COCCCc1ccc(OCC(O)CNC(C)C)c(OC)c1 (stereo not drawn) [Example 12, 1-isopropylamino-3-[2'-methoxy-4'-(3-methoxy-n-propyl)phenoxy]-propanol-2xHCl]
- ED50 [1]: 5 mg/kg
- Emax (β-receptors of the heart [2]): 0%
- ED50 (β-receptors of the heart [3]; cat): 0.4 mg/kg

SMILES: COCCc1ccc(OCC(O)CNC(C)C)c(F)c1 (stereo not drawn) [Example 13, 1-isopropylamino-3-[2'-fluoro-4'-(2-methoxyethyl)phenoxy]-propanol-2xHCl]
- ED50 [1]: 2.7 mg/kg
- Emax (β-receptors of the heart [2]): 0%
- ED50 (β-receptors of the heart [3]; [4]): 0.05 mg/kg
